Experimental data taken from patent US5942527A, “Hydrazones, hydrazines, semicarbazones and thiosemicarbazones derived from pyridyl ketones as anticonvulsant drugs and excitatory amino acid antagonists” (K & K Biosciences, Inc., priority 1997, dated 1999).

Legend:
[1] = test system: subcutaneous pentylenetetrazole (Metrazole) seizure; experiment: Subcutaneous pentylenetetrazole (Metrazole) seizure threshold test (scMet), rat, p.o.; assay type: in vivo, rat (Sprague-Dawley); details: po, rats, Table 6
Excerpt: (§1) The hydrazones, hydrazines and semicarbazones derived from pyridyl ketones and the resulting orally effective anticonvulsant compositions of this invention are useful in the treatment of convulsive disorders. […] A series of hydrazones, hydrazines and semicarbazones derived from pyridyl ketones of this invention has been evaluated for anticonvulsant activity by the intraperitoneal (i.p.) and by the oral (p.o.) route using two standard seizure models in the mouse and in the rat, the maximal electroshock seizure (MES) test and the subcutaneous pentylenetetrazole (Metrazole) seizure threshold (scMet) test. […] In addition, the compounds are evaluated in a new model, the threshold tonic extension (TTE) model. […] Thus active compounds that may be missed in the MES and scMet tests in the mouse, i.p., can be detected in the TTE test.
(§2) The Subcutaneous Pentylenetetrazol (Metrazole) Seizure Treshold Test (scMET): A 0.5 % solution of 85 mg/kg of pentylenetetrazole is administered subcutaneously in the posterior midline 30 minutes or 4 hours after drug administration to the animal. Failure to observe even a threshold seizure (a single episode of clonic spasms of at least 5 sec duration) is defined as protection and the results are expressed as number of animals protected/number of animals tested.
(§3) This species will be the subject of the complete anticonvulsant quantification test evaluation as described above, but after oral (gavage) administration of the candidate compound.

[2] = test system: maximal electroshock seizures; experiment: Maximal electroshock seizure (MES) test, mouse, i.p.; assay type: in vivo, mouse (male Carworth Farms #1); details: for ASP Group Classification, MES Test: mouse, 30, 100 and 300 mg/kg; for ED50: Mus musculus, ip; for ED50 / P.I., TD50/ED50, MES: mice, Table 5
Excerpt: The hydrazones, hydrazines and semicarbazones derived from pyridyl ketones and the resulting orally effective anticonvulsant compositions of this invention are useful in the treatment of convulsive disorders. […] A series of hydrazones, hydrazines and semicarbazones derived from pyridyl ketones of this invention has been evaluated for anticonvulsant activity by the intraperitoneal (i.p.) and by the oral (p.o.) route using two standard seizure models in the mouse and in the rat, the maximal electroshock seizure (MES) test and the subcutaneous pentylenetetrazole (Metrazole) seizure threshold (scMet) test. […] In addition, the compounds are evaluated in a new model, the threshold tonic extension (TTE) model. […] Thus active compounds that may be missed in the MES and […] the mouse, i.p., can be detected in the TTE test. Based on the screening results, the compounds are placed in one of three categories. […] Class II compounds show anticonvulsant activity at doses greater than 100 mg/kg or show activity at 100 mg/kg which is not reinforced by similar activity at 300 mg/kg. […] The Class I compounds are those which are most promising as anticonvulsants. […] In mice. i.p.: All compounds are emulsified in 0.5% methylcellulose. The solvent has been tested for anticonvulsant and toxic effects and found to introduce no significant bias into the testing of anticonvulsant activity. The compounds are administered intraperitoneally in a volume of 0.01 ml/gm to male Carworth Farms #1 mice weighing about 20 gm. All compounds are tested at least at three dose levels (30, 100 and 300 mg/kg) at 30 minutes and 4 hours after their administration. The Maximal Electroshock Seizure Test (MES): Maximal electroshock seizures are elicited with a 60 Hz alternating current of 50 mA intensity in mice and about 150 mA intensity in rats (5-7 times that necessary to elicit minimal electroshock seizures), delivered for 0.2 sec via corneal electrodes. A drop of 0.9% saline is instilled in the eye prior to application of the electrodes in order to […]. Abolition of the hind limb tonic extension component of the seizure is defined as protection and results are expressed as number of animals protected/number of animals tested. Anticonvulsant Quantification in Mice, i.p.: The ED50 values are determined in the MES, scMet and rotorod ataxia test.

[3] = test system: maximal electroshock seizures; experiment: Maximal electroshock seizure (MES) test, rat, p.o.; assay type: in vivo, rat (Sprague-Dawley); details: for ED50 / responders at 30 mg/kg: po; for responders at 30 mg/kg: several time points over a 4 hour period, read-out: Percent Protection at 30 mg/kg, in the MES test; for P.I., TD50/ED50, MES: Table 6
Excerpt: The hydrazones, hydrazines and semicarbazones derived from pyridyl ketones and the resulting orally effective anticonvulsant compositions of this invention are useful in the treatment of convulsive disorders. […] A series of hydrazones, hydrazines and semicarbazones derived from pyridyl ketones of this invention has been evaluated for anticonvulsant activity by the intraperitoneal (i.p.) and by the oral (p.o.) route using two standard seizure models in the mouse and in the rat, the maximal electroshock seizure (MES) test and the subcutaneous pentylenetetrazole (Metrazole) seizure threshold (scMet) test. […] In addition, the compounds are evaluated in a new model, the threshold tonic extension (TTE) model. […] Thus active compounds that may be missed in the MES and […] the mouse, i.p., can be detected in the TTE test. The Maximal Electroshock Seizure Test (MES): Maximal electroshock seizures are elicited with a 60 Hz alternating current of 50 mA intensity in mice and about 150 mA intensity in rats (5-7 times that necessary to elicit minimal electroshock seizures), delivered for 0.2 sec via corneal electrodes. A drop of 0.9% saline is instilled in the eye prior to application of the electrodes in order to […]. Abolition of the hind limb tonic extension component of the seizure is defined as protection and results are expressed as number of animals protected/number of animals tested. […] This species will be the subject of the complete anticonvulsant quantification test evaluation as described above, but after oral (gavage) administration of the candidate compound.

TTE seizure = experiment: Threshold tonic extension (TTE) test, mouse, i.p.; assay type: in vivo
Excerpt: as §1
The Threshold Tonic Extension (TTE) Test: The TTE test (Piredda et al., 1985) is a clinically nonselective, electroconvulsive seizure model that identifies compounds that raise seizure threshold as well as those that prevent seizure spread. […] The test is similar to the MES screen but uses a lower level of electrical current. The lower current makes the TTE test more sensitive but less discriminate than the MES screen. This ability makes the model attractive because it allows us to identify compounds that may be missed by our standard identification screen.
Twenty mice are pretreated intraperitoneally with 100 mg/kg of the test substance. At several time intervals (1/4, 1/2, 1, 2, and 4 hours) post treatment with the test drug, four mice at each time point are challenged with 12.5 mA of electrical current for 0.2 seconds via corneal electrodes. This produces a TTE seizure in the animals (Woodbury and Davenport, 1952).
For each time interval results are expressed as a ratio of the number of animals protected over the number tested. […] The positives may represent compounds acting by novel mechanisms.

in vivo [4] = experiment: in vivo; parameters: species or system rat (Sprague-Dawley); details: rat, po
Description: (§4) Neurotoxicity is determined by the rotorod ataxia test in mice and by the positional sense test and gait and stance test in the rat.
as §3
Neurological deficit in rats is examined by the positional sense test and gait and stance test. […] Inability to do so rapidly indicates a neurologic deficit. In the gait and stance test, a neurologic deficit is indicated by a circular or a zigzag gait, ataxia, abnormal spread of the legs, abnormal body posture, tremor, hyperactivity, lack of exploratory behavior, somnolence, stupor, or catalepsy.

in vivo [5] = experiment: in vivo; parameters: species or system mouse (male Carworth Farms #1); details: mouse, ip
Description: as §4
Neurotoxicity is evaluated in mice by the rotorod ataxia test. The animal is placed on a wooden rod of 1 and 1/8" diameter rotating at 6 rpm. Normal mice can remain on a rod rotating at this speed indefinitely.
(§5) Anticonvulsant Quantification in Mice, i.p.: The ED50 values are determined in the MES, scMet and rotorod ataxia test.

[6] = test system: subcutaneous pentylenetetrazole (Metrazole) seizure; experiment: Subcutaneous pentylenetetrazole (Metrazole) seizure threshold test (scMet), mouse, i.p.; assay type: in vivo, mouse (male Carworth Farms #1); details: ip, mice, Table 5
Excerpt: as §1
In mice. i.p.: All compounds are emulsified in 0.5% methylcellulose. The solvent has been tested for anticonvulsant and toxic effects and found to introduce no significant bias into the testing of anticonvulsant activity. The compounds are administered intraperitoneally in a volume of 0.01 ml/gm to male Carworth Farms #1 mice weighing about 20 gm. All compounds are tested at least at three dose levels (30, 100 and 300 mg/kg) at 30 minutes and 4 hours after their administration.
as §2, §5

[7] = Rattus norvegicus, rats, Table 6, read-out: ED50, MES
[8] = rat, Table 7, read-out: Anticonvulsant Efficacy (ED50, mg/kg) in the MES Test

Row | Structure (SMILES) | ED50 [1] [mg/kg] | ASP Group Classification, MES Test [2] | ED50 [3, 7] [mg/kg] | responders at 30 mg/kg ([3]; rat, 30 mg/kg) [%] | ED50 [3, 8] [mg/kg] | P.I., TD50/ED50, MES ([3]; rats) | ED50 (TTE seizure; Mus musculus, ip, mice, Table 5) [mg/kg] | ASP Group Classification, TTE Test (TTE seizure; mouse, 100 mg/kg) | TTE Test (Percent Protection) (TTE seizure; mouse, 100 mg/kg) [%] | TD50 (in vivo [4]) [mg/kg] | TD50 (in vivo [5]) [mg/kg] | ED50 [2] [mg/kg] | P.I., TD50/ED50, MES [2] | ED50 [6] [mg/kg] | protection at 30 mg/kg, MES Test ([3]; rat, 30 mg/kg, Table 7)
1 | CC(=NNc1ccc(Cl)c(Cl)c1)c1ccncc1 [Compound 1, Methyl 4-pyridyl ketone 3,4-dichlorophenylhydrazone] | > 250 | III (Those failing to demonstrate anticonvulsant activity at doses up to 300 mg/kg are considered inactive) | 16.9 | 25 to 95 | 16.9 | > 29.64 | 71 | I (They demonstrate anticonvulsant activity in either the MES test or the scMet test, or both at doses of 100 mg/kg or 30 mg/kg without signs of neurological deficit and thus have an estimated protective index of greater than 1) | 62 | > 500 |  |  |  |  | 
2 | CC(=NNc1cccc(Cl)c1)c1ccncc1 [Compound 3, Methyl 4-pyridyl ketone 3-chlorophenyl hydrazone] | > 250 | II (show anticonvulsant activity at doses greater than 100 mg/kg or show activity at 100 mg/kg which is not reinforced by similar activity at 300 mg/kg) | 36.6 | 50 to 100 |  | > 13.65 |  |  |  | > 500 | 441 | 81.8 | 5.39 | > 500 | 
3 | CC(=NNc1ccc(Cl)c(Cl)c1)c1cccnc1 [Compound 4, Methyl 3-pyridyl ketone 3,4-dichlorophenylhydrazone] |  | I (They demonstrate anticonvulsant activity in either the MES test or the scMet test, or both at doses of 100 mg/kg or 30 mg/kg without signs of neurological deficit and thus have an estimated protective index of greater than 1) |  | 25 to 100 |  |  |  |  |  |  | > 500 | 69.8 | > 7.17 | > 500 | 
4 | CC(=NNc1ccc(Cl)cc1)c1cccnc1 [Compound 5, Methyl 3-pyridyl ketone 4-chlorophenylhydrazone] | > 250 | I (They demonstrate anticonvulsant activity in either the MES test or the scMet test, or both at doses of 100 mg/kg or 30 mg/kg without signs of neurological deficit and thus have an estimated protective index of greater than 1) | 7.79 | 50 to 100 | 7.8 | > 64.12 |  |  |  | > 500 |  |  |  |  | 
5 | NC(=O)NN=C(c1ccccc1)c1ccncc1 [Compound 15, Phenyl 4-pyridyl ketone semicarbazone] |  | I (They demonstrate anticonvulsant activity in either the MES test or the scMet test, or both at doses of 100 mg/kg or 30 mg/kg without signs of neurological deficit and thus have an estimated protective index of greater than 1) |  | 50 to 100 |  |  |  |  |  |  | 160 | 57.5 | 2.79 | > 300 | 50-100%
